Among the data in ChEMBL document CHEMBL4177609, “Identification of pyrrolo[2,3-d]pyrimidines as potent HCK and FLT3-ITD dual inhibitors” (Bioorg Med Chem Lett, 2017) are GI50 and IC50 values, retold here.

pIC50: −log10 of the molar value.

The test system of one assay is MV4-11. Description: Growth inhibition of human MV4-11 cells after 3 days by Alamar blue assay. The class given is functional. Conditions: MV4-11, 72 h.
Assay [1] concerns the target Receptor-type tyrosine-protein kinase FLT3 (Homo sapiens, UniProt P36888, ITD). As to the kind of experiment: Inhibition of recombinant human C-terminal FLT3 ITD mutant (571 to 993 residues) after 90 mins by mobility shift assay.
Assay [2] addresses Tyrosine-protein kinase HCK (Homo sapiens, UniProt P08631).
Description: Inhibition of recombinant human HCK SH3-SH2-KD (75 to 526 residues) after 20 mins by mobility shift assay

Usually GI50 stands for the concentration that inhibits growth by half. Read a high GI50 as less potent growth inhibition. What is called pIC50 is −log10 of the IC50, conventionally taken in molar units.

Sequence of Receptor-type tyrosine-protein kinase FLT3 (P36888 whole entry, looked up, stated change not applied, the tested form may be a part): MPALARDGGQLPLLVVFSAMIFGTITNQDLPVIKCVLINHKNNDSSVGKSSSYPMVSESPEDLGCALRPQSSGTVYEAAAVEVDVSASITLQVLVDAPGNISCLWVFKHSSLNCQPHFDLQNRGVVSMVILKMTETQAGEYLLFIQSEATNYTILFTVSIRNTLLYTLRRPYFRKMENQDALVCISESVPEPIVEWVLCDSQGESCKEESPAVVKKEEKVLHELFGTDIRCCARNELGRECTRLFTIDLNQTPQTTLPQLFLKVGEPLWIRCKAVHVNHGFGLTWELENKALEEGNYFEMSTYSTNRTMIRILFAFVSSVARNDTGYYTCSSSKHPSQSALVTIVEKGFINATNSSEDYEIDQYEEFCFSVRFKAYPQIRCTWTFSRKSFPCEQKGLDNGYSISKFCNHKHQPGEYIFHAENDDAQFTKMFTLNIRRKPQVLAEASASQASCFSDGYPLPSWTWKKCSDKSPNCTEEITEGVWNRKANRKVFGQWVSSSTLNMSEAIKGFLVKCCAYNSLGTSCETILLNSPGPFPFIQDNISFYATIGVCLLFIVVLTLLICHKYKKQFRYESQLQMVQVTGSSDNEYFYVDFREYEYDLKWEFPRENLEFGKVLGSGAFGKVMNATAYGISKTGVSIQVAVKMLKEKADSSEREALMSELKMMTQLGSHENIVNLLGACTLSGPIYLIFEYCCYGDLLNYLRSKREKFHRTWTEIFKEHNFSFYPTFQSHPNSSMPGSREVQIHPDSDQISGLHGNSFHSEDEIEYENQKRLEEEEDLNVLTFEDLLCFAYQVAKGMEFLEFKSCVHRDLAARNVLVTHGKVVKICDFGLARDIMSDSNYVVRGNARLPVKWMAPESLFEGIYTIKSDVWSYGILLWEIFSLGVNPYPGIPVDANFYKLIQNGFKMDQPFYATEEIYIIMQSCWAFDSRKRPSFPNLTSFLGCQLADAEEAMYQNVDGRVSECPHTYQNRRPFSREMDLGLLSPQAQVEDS
Sequence of Tyrosine-protein kinase HCK (P08631 whole entry): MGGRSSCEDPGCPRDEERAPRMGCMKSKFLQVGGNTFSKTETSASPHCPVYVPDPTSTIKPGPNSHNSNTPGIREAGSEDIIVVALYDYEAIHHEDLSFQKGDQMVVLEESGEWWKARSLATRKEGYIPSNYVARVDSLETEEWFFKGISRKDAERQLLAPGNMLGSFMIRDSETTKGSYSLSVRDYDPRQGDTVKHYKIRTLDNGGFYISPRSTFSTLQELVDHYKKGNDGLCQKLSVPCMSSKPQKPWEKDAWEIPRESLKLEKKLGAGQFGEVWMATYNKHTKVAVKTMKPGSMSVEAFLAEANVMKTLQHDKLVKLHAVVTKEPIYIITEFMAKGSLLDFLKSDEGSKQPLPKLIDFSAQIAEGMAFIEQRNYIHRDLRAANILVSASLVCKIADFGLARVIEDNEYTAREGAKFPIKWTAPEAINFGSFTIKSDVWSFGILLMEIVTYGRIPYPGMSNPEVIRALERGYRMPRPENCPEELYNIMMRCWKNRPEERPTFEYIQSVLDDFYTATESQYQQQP

Compound `Nc1ncnc2c1c(-c1ccc(Oc3ccccc3)cc1)cn2[C@H]1CC[C@@H](N[C@H](Cc2ccccc2)C(=O)O)CC1` yielded a GI50 in the assay on MV4-11 of 0.026 µM. Moreover, the results for the pIC50 in assay [1] and in assay [2] were 8.59 and 7.74, respectively.

In the case of `Nc1ncnc2c1c(-c1ccc(Oc3ccccc3)cc1)cn2[C@H]1CC[C@H](NCC(=O)O)CC1`, growth in the assay with MV4-11 was halved (GI50) at 0.098 µM. Also, the results for the pIC50 in assay [1] and in assay [2] were 7.55 and 8.43, respectively.

On to `CN1CCN([C@H]2CC[C@H](n3cc(-c4ccc(Oc5ccccc5)cc4)c4c(N)ncnc43)CC2)CC1`, for which the GI50 in the assay with MV4-11 was 0.04 µM. In addition, the pIC50 in assay [2] is 9.40.

Take `Nc1ncnc2c1c(-c1ccc(Oc3ccccc3)cc1)cn2[C@H]1CC[C@@H](N[C@@H](Cc2ccccc2)C(=O)O)CC1`: the pIC50 in assay [1] is 8.51; in assay [2], 7.13.

On to `Nc1ncnc2c1c(-c1ccc(Oc3ccccc3)cc1)cn2[C@H]1CC[C@H](N[C@@H](Cc2ccc(O)cc2)C(=O)O)CC1`, for which the pIC50 in assay [1] was 7.55; in assay [2], 8.13.

Turning to `Nc1ncnc2c1c(-c1ccc(Oc3ccccc3)cc1)cn2[C@H]1CC[C@H](N2CCC[C@H]2C(=O)O)CC1`, the results for the pIC50 in assay [1] and in assay [2] were 7.59 and 7.28, respectively.

As to `CC(C)CCN[C@H]1CC[C@H](n2cc(-c3ccc(Oc4ccccc4)cc3)c3c(N)ncnc32)CC1`, the pIC50 in assay [1] is 7.25; in assay [2], 6.65.

In the case of `Nc1ncnc2c1c(-c1ccc(Oc3ccccc3)cc1)cn2[C@H]1CC[C@H](N[C@H](Cc2ccc(O)cc2)C(=O)O)CC1`, the pIC50 in assay [1] is 7.96; in assay [2] it was 7.82.

Consider `Nc1ncnc2c1c(-c1ccc(Oc3ccccc3)cc1)cn2[C@H]1CC[C@@H](N2CCC[C@@H]2C(=O)O)CC1`, for which the results for the pIC50 in assay [1] and in assay [2] were 7.80 and 7.19, respectively.

For the compound `CC(C)C[C@@H](N[C@H]1CC[C@@H](n2cc(-c3ccc(Oc4ccccc4)cc3)c3c(N)ncnc32)CC1)C(=O)O`, the results for the pIC50 in assay [1] and in assay [2] were 7.46 and 6.86, respectively.

For the compound `CC(C)CCN[C@H]1CC[C@@H](n2cc(-c3ccc(Oc4ccccc4)cc3)c3c(N)ncnc32)CC1`, the pIC50 is 7.36 in assay [1] and 6.92 in assay [2].

For the compound `Nc1ncnc2c1c(-c1ccc(Oc3ccccc3)cc1)cn2[C@H]1CC[C@H](N[C@H](CO)C(=O)O)CC1`, the results for the pIC50 in assay [1] and in assay [2] were 7.77 and 8.20, respectively.

`Nc1ncnc2c1c(-c1ccc(Oc3ccccc3)cc1)cn2[C@H]1CC[C@H](N[C@H](Cc2ccccc2)C(=O)O)CC1`: the figures for the pIC50 in assay [1] and in assay [2] were 7.57 and 7.62, respectively.

Regarding `CC(C)C[C@H](N[C@H]1CC[C@@H](n2cc(-c3ccc(Oc4ccccc4)cc3)c3c(N)ncnc32)CC1)C(=O)O`, the results for the pIC50 in assay [1] and in assay [2] were 7.64 and 6.98, respectively.

As to `Nc1ncnc2c1c(-c1ccc(Oc3ccccc3)cc1)cn2[C@H]1CC[C@@H](N[C@@H](Cc2ccc(O)cc2)C(=O)O)CC1`, the pIC50 in assay [1] was 8.30; in assay [2], 7.41.

In the case of `Nc1ncnc2c1c(-c1ccc(Oc3ccccc3)cc1)cn2[C@H]1CC[C@H](N[C@@H](CO)C(=O)O)CC1`, the GI50 in the assay with MV4-11 was above 0.1 µM. In addition, the pIC50 was 7.74 in assay [1] and 8.74 in assay [2].

For `Nc1ncnc2c1c(-c1ccc(Oc3ccccc3)cc1)cn2[C@H]1CC[C@@H](N[C@H](CO)C(=O)O)CC1`, the pIC50 in assay [1] is 7.92; in assay [2], 7.64.

`Nc1ncnc2c1c(-c1ccc(Oc3ccccc3)cc1)cn2[C@H]1CC[C@@H](NCC(=O)O)CC1`: the pIC50 in assay [1] was 7.49; in assay [2], 7.92.

Take `Nc1ncnc2c1c(-c1ccc(Oc3ccccc3)cc1)cn2[C@H]1CC[C@H](N[C@H]2CCOC2=O)CC1`: the negative-log IC50 (pIC50) was 7.60 in assay [1] and 7.55 in assay [2].

Consider `C[C@H](N[C@H]1CC[C@@H](n2cc(-c3ccc(Oc4ccccc4)cc3)c3c(N)ncnc32)CC1)C(=O)O`, for which the pIC50 was 7.70 in assay [1] and 7.14 in assay [2].

For the compound `Nc1ncnc2c1c(-c1ccc(Oc3ccccc3)cc1)cn2[C@H]1CC[C@@H](N2CCC[C@H]2C(=O)O)CC1`, the pIC50 is 7.70 in assay [1] and 7.10 in assay [2].

With `Nc1ncnc2c1c(-c1ccc(Oc3ccccc3)cc1)cn2[C@H]1CC[C@@H](N[C@@H](CO)C(=O)O)CC1`, the pIC50 in assay [1] is 7.89; in assay [2], 7.40.

As to `Nc1ncnc2c1c(-c1ccc(Oc3ccccc3)cc1)cn2[C@H]1CC[C@H](N2CCC[C@@H]2C(=O)O)CC1`, the pIC50 was 6.90 in assay [1] and 6.70 in assay [2].

On to `CC(C)C[C@@H](N[C@H]1CC[C@H](n2cc(-c3ccc(Oc4ccccc4)cc3)c3c(N)ncnc32)CC1)C(=O)O`, for which the pIC50 was 7.28 in assay [1] and 7.57 in assay [2].

Consider `C[C@H](N[C@H]1CC[C@H](n2cc(-c3ccc(Oc4ccccc4)cc3)c3c(N)ncnc32)CC1)C(=O)O`, for which the pIC50 is 7.41 in assay [1] and 8.16 in assay [2].

As to `C[C@@H](N[C@H]1CC[C@@H](n2cc(-c3ccc(Oc4ccccc4)cc3)c3c(N)ncnc32)CC1)C(=O)O`, the pIC50 in assay [1] was 7.64; in assay [2] it was 7.44.

The compound `Nc1ncnc2c1c(-c1ccc(Oc3ccccc3)cc1)cn2[C@H]1CC[C@@H](N[C@H](Cc2ccc(O)cc2)C(=O)O)CC1` came in with a GI50 in the assay with MV4-11 of 0.018 µM. The pIC50 in assay [1] was 8.30; in assay [2] it was 7.89.

As for `Nc1ncnc2c1c(-c1ccc(Oc3ccccc3)cc1)cn2[C@H]1CC[C@H](N[C@@H](Cc2ccccc2)C(=O)O)CC1`, the pIC50 in assay [1] was 7.62; in assay [2], 8.12.

Compound `CC(C)C[C@H](N[C@H]1CC[C@H](n2cc(-c3ccc(Oc4ccccc4)cc3)c3c(N)ncnc32)CC1)C(=O)O` showed a GI50 with MV4-11 of 0.021 µM. In addition, the pIC50 was 7.85 in assay [1] and 8.36 in assay [2].

`Nc1ncnc2c1c(-c1ccc(Oc3ccccc3)cc1)cn2[C@H]1CC[C@@H](N[C@H]2CCOC2=O)CC1`: the GI50 in the assay with MV4-11 is 0.029 µM. Further, the pIC50 in assay [1] was 7.57; in assay [2], 8.27.

For the compound `Nc1ncnc2c1c(-c1ccc(Oc3ccccc3)cc1)cn2[C@H]1CC[C@H](NCCC(=O)O)CC1`, the pIC50 in assay [1] was 7.48; in assay [2] it was 7.82.

For the compound `C[C@@H](N[C@H]1CC[C@H](n2cc(-c3ccc(Oc4ccccc4)cc3)c3c(N)ncnc32)CC1)C(=O)O`, the results for the pIC50 in assay [1] and in assay [2] were 7.41 and 7.44, respectively.
